Columns and labels:
FTSJ1 = target: T1, FTSJ1 (Homo sapiens, UniProt Q9UET6); assay: UGA readthrough luciferase assay with FTSJ1 overexpression; assay type: cell-based
T1 construct: host or cells: HeLa
T1 sequence (Q9UET6 1-329): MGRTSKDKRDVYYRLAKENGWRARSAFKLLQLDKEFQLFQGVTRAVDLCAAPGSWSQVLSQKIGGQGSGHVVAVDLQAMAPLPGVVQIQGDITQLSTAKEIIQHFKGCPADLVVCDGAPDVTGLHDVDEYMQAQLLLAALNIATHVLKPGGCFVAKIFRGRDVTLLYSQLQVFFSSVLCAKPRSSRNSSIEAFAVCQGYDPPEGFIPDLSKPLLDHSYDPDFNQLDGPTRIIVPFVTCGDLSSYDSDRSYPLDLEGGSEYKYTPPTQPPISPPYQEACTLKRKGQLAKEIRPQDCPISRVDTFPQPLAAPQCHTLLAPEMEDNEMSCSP
Source text: Firefly luciferase from HEK293FT cells transfected with the Fluc-int-UGA construct was immunoprecipitated and digested with trypsin. The MS/MS spectrum of the peptide containing the PTC position and the sequence determination are shown. The upper red and blue sequences indicate the amino acids validated, respectively, by detection of Nter and Cter peptide fragments (b and y ion series). Peptide fragments y6 and y7 clearly identify tryptophan (W) at the PTC position. The black peaks correspond to non-attributed mass-to-charge ratio (m/z) values. […] Readthrough efficiency was determined by measuring luciferase activity in HeLa cells co-transfected with the firefly luciferase construct described in Fig. 1b and with increasing amounts of an expression vector for either FTSJ1 or CTU1 (0.5, 1, or 2 µg). The empty expression vector (E.v.) was used as control. […] The experiment was performed twice and the results of both experiments (Exp1 and Exp2) are shown. c Western blot analysis of FTSJ1 and CTU1. d 2′-O-methylation analysis of tRNA^Trp, tRNA^SER, and tRNA^GLN by RiboMethSeq. […] A molecular weight marker is indicated to the left of each gel. p-values (p) were calculated using Student’s t-test. Source data are provided as a Source Data file.
Among the enzymes modifying tRNAs liable to recognize a stop codon by extended wobbling, human FTSJ1 (TRM7 in yeast) exclusively modifies tRNAs involved in UGA readthrough. In addition to other tRNA targets, FTSJ1 methylates the cytosine at position 34 of tRNA^Trp. Inhibition of this modification could increase the capacity of tRNA^Trp to misdecode and recognize the UGA stop codon. […] FTSJ1 and CTU1 overexpression were assessed by western-blot analysis (Fig. 5c).

[1] = test system: wild-type TP53 in HeLa cells; assay: p53 function: luciferase under promoter with two p53-responsive elements, HeLa; assay type: cell-based, human

Nc1nc(N)c2[nH]cnc2n1 [DAP, 2,6-diaminopurine]
luciferase activity, exp1*1,5 (FTSJ1; 1µg FTSJ1, 0.39µM): 818.25 | luciferase activity, exp2 (FTSJ1; 1µg FTSJ1, 0.39µM): 833 | luciferase activity, average (FTSJ1; 1µg FTSJ1, 0.78µM): 1113.62 | luciferase activity, exp1 (FTSJ1; 1µg FTSJ1, 0.78µM): 667.5 | luciferase activity, exp1*1,5 (FTSJ1; 1µg FTSJ1, 0.78µM): 1001.25 | luciferase activity, exp2 (FTSJ1; 1µg FTSJ1, 0.78µM): 1226 | luciferase activity, average (FTSJ1; 1µg FTSJ1, 1.56µM): 1547.75 | luciferase activity, exp1 (FTSJ1; 1µg FTSJ1, 1.56µM): 877 | luciferase activity, exp1*1,5 (FTSJ1; 1µg FTSJ1, 1.56µM): 1315.5 | luciferase activity, exp2 (FTSJ1; 1µg FTSJ1, 1.56µM): 1780 | luciferase activity, average (FTSJ1; 1µg FTSJ1, 6.25µM): 5589 | luciferase activity, exp1 (FTSJ1; 1µg FTSJ1, 6.25µM): 2330 | luciferase activity, exp1*1,5 (FTSJ1; 1µg FTSJ1, 6.25µM): 3495 | luciferase activity, exp2 (FTSJ1; 1µg FTSJ1, 6.25µM): 7683 | luciferase activity, average (FTSJ1; 1µg FTSJ1, 25µM): 18207.6 | luciferase activity, exp1 (FTSJ1; 1µg FTSJ1, 25µM): 6784.5 | luciferase activity, exp1*1,5 (FTSJ1; 1µg FTSJ1, 25µM): 10176.8 | luciferase activity, exp2 (FTSJ1; 1µg FTSJ1, 25µM): 26238.5 | luciferase activity, average (FTSJ1; 1µg FTSJ1, 100µM): 59739.5 | luciferase activity, exp1 (FTSJ1; 1µg FTSJ1, 100µM): 25052 | luciferase activity, exp1*1,5 (FTSJ1; 1µg FTSJ1, 100µM): 37578 | luciferase activity, exp2 (FTSJ1; 1µg FTSJ1, 100µM): 81901 | luciferase activity, average (FTSJ1; 1µg FTSJ1, 300µM): 78923.5 | luciferase activity, exp1 (FTSJ1; 1µg FTSJ1, 300µM): 30654 | luciferase activity, exp1*1,5 (FTSJ1; 1µg FTSJ1, 300µM): 45981 | luciferase activity, exp2 (FTSJ1; 1µg FTSJ1, 300µM): 111866 | luciferase activity, average (FTSJ1; 1µg FTSJ1, 600µM): 72130.6 | luciferase activity, exp1 (FTSJ1; 1µg FTSJ1, 600µM): 22687.5 | luciferase activity, exp1*1,5 (FTSJ1; 1µg FTSJ1, 600µM): 34031.2 | luciferase activity, exp2 (FTSJ1; 1µg FTSJ1, 600µM): 110230 | luciferase activity, average (FTSJ1; 2µg FTSJ1, 0.39µM): 748.25 | luciferase activity, exp1 (FTSJ1; 2µg FTSJ1, 0.39µM): 541 | luciferase activity, exp1*1,5 (FTSJ1; 2µg FTSJ1, 0.39µM): 811.5 | luciferase activity, exp2 (FTSJ1; 2µg FTSJ1, 0.39µM): 685 | luciferase activity, average (FTSJ1; 2µg FTSJ1, 0.78µM): 885.625 | luciferase activity, exp1 (FTSJ1; 2µg FTSJ1, 0.78µM): 619.5 | luciferase activity, exp1*1,5 (FTSJ1; 2µg FTSJ1, 0.78µM): 929.25 | luciferase activity, exp2 (FTSJ1; 2µg FTSJ1, 0.78µM): 842 | luciferase activity, average (FTSJ1; 2µg FTSJ1, 1.56µM): 1120.12 | luciferase activity, exp1 (FTSJ1; 2µg FTSJ1, 1.56µM): 798.5 | luciferase activity, exp1*1,5 (FTSJ1; 2µg FTSJ1, 1.56µM): 1197.75 | luciferase activity, exp2 (FTSJ1; 2µg FTSJ1, 1.56µM): 1042.5 | luciferase activity, average (FTSJ1; 2µg FTSJ1, 6.25µM): 2590.25 | luciferase activity, exp1 (FTSJ1; 2µg FTSJ1, 6.25µM): 1505 | luciferase activity, exp1*1,5 (FTSJ1; 2µg FTSJ1, 6.25µM): 2257.5 | luciferase activity, exp2 (FTSJ1; 2µg FTSJ1, 6.25µM): 2923 | luciferase activity, average (FTSJ1; 2µg FTSJ1, 25µM): 6098.62 | luciferase activity, exp1 (FTSJ1; 2µg FTSJ1, 25µM): 3067.5 | luciferase activity, exp1*1,5 (FTSJ1; 2µg FTSJ1, 25µM): 4601.25 | luciferase activity, exp2 (FTSJ1; 2µg FTSJ1, 25µM): 7596 | luciferase activity, average (FTSJ1; 2µg FTSJ1, 100µM): 13866.6 | luciferase activity, exp1 (FTSJ1; 2µg FTSJ1, 100µM): 8407.5 | luciferase activity, exp1*1,5 (FTSJ1; 2µg FTSJ1, 100µM): 12611.2 | luciferase activity, exp2 (FTSJ1; 2µg FTSJ1, 100µM): 15122 | luciferase activity, average (FTSJ1; 2µg FTSJ1, 300µM): 32953.2 | luciferase activity, exp1 (FTSJ1; 2µg FTSJ1, 300µM): 15279 | luciferase activity, exp1*1,5 (FTSJ1; 2µg FTSJ1, 300µM): 22918.5 | luciferase activity, exp2 (FTSJ1; 2µg FTSJ1, 300µM): 42988 | luciferase activity, average (FTSJ1; 2µg FTSJ1, 600µM): 35768.5 | luciferase activity, exp1 (FTSJ1; 2µg FTSJ1, 600µM): 13538 | luciferase activity, exp1*1,5 (FTSJ1; 2µg FTSJ1, 600µM): 20307 | luciferase activity, exp2 (FTSJ1; 2µg FTSJ1, 600µM): 51230 | Effect of FTSJ1 overexpression on DAP-promoted readthrough (FTSJ1; HeLa, pFluc-int-UGA): strongly reduce DAP-promoted readthrough | Luciferase activity, p53-responsive promoter construct (DMSO = 1) ([1]; 6.25µM, FL922): 0.8852 | Luciferase activity, p53-responsive promoter construct (DMSO = 1) ([1]; 6.25µM, FL932): 0.9803 | Luciferase activity, p53-responsive promoter construct (DMSO = 1) ([1]; 6.25µM, FL934): 0.8382 | Luciferase activity, p53-responsive promoter construct (DMSO = 1) ([1]; 6.25µM, average): 0.9012 | Luciferase activity, p53-responsive promoter construct (DMSO = 1) ([1]; 25µM, FL922): 0.7844 | Luciferase activity, p53-responsive promoter construct (DMSO = 1) ([1]; 25µM, FL932): 0.8921 | Luciferase activity, p53-responsive promoter construct (DMSO = 1) ([1]; 25µM, FL934): 1.092 | Luciferase activity, p53-responsive promoter construct (DMSO = 1) ([1]; 25µM, average): 0.9228 | Luciferase activity under p53-responsive promoter, in words ([1]; wild-type TP53): failure of DAP to cause a luciferase activity increase

— paper PMC7083880 (Nature Communications, 2020)
